The subject of the data set is CHO cell line. Briefly: In vitro test of metabolization in CHO cells (steroids in culture medium by GC/MS). As to the method: In Vitro Test of Metabolization
In this example, CHO cell line was used. These cells derived from the ovary have all the enzymes needed to metabolize pregnenolone in downstream steroids.
The content in CHO culture medium of allopregnanolone (ALLO), epiallopregnanolone (EPIALLO), pregnenolone (PREG), DHEA, and testosterone (TESTO) was measured by GC/MS.
Pregnenolone derivatives having C3 substituted with benzyloxy were tested using in vitro test in CHO cells.
Results expressed as percentage changes from CHO cells treated with Pregnenolone or as pg/ml (0=concentrations below the detection limit).

Where [1] appears, read: CHO culture medium, Pregnenolone 1 μM, 48 hours, GC/MS.

`CC(=O)[C@H]1CC[C@H]2[C@@H]3CC=C4C[C@@H](O)CC[C@]4(C)[C@H]3CC[C@]12C` [Pregnenolone]: the “Allopregnanolone and Epiallopregnanolone in the culture medium (in words)” value (CHO cells, 1 μM, 48 hours) is “significant increase”. For the same compound, under setting [1], the “ALLO (allopregnanolone) steroid levels” value was 3529.99 pg/mL, the DHEA steroid levels came to 0.00 pg/mL, the “EPIALLO (epiallopregnanolone) steroid levels” value was found to be 16963.84 pg/mL and the “PREG (pregnenolone) steroid levels” value was determined as 11440.66 pg/mL. Further, under setting [1], the “TESTO (testosterone) steroid levels” value worked out at 0.00 pg/mL.
Take `COc1ccc(CO[C@H]2CC[C@@]3(C)C(=CCC4C3CC[C@@]3(C)C4CC[C@]3(C)C(C)=O)C2)cc1` (stereo partly drawn) [Compound 68, 3β-(p-methoxy- benzyloxy)-17α- methyl- pregnenolone]: the “metabolised in Pregnenolone (in words)” value (CHO cells, Table 2) is reported as “not metabolised”.

Values taken from US9732115B2, “3-(4′-substituted)-benzyl-ether derivatives of pregnenolone” (INSERM (Institut National de la Sante et de la Recherche …, priority 2012, dated 2017).
